In publication PMC9144402, “An Octopus-Derived Peptide with Antidiuretic Activity in Rats” (Marine Drugs, 2022):
Positions of bridges follow the written chain, without caps; N, C: chain ends. Residues, ends and D or L forms follow the SMILES beside them. No end group written: not given here.

Key:
V1aR [1] = settings: ref [17]; cited from earlier work
Sprague-Dawley (SD) rats [2] = experiment: Antidiuretic experiment in SD rats (single tail intravenous injection, metabolic cage); type: in vivo, rat
[3] = test system: HEK293T human kidney cells; experiment: CCK-8 cell viability assay and morphology, HEK293T; type: cell-based; settings: for viable HEK293T cells: 0.1–50 μM
Protocol: Human kidney HEK293T cells were obtained from the American Type Culture Collection (ATCC, Manassas, VA, USA). The 293T cells were grown in DMEM supplemented with 10% fetal bovine serum (HyClone, Logan, UT, USA) and penicillin–streptomycin. Cells were incubated at 37 °C in a humidified atmosphere with 95% air/5% CO2. HEK293T cells (5 × 10^3) were incubated in 96-well plates to measure cell viability using a Cell Counting Kit-8 (CCK-8; Dojindo Laboratories, Kumamoto, Japan). After overnight incubation, the medium was changed to fresh medium containing CPT at doses of 50~0.1 μM in three wells each. Then, the cells were incubated for 24, 48, or 72 h and photographed under a phase-contrast microscope. We added 100 μL of fresh medium and 10 μL of CCK-8 solution to each well. After incubation for 3 h at 37 °C, the optical density (OD) at 450 nm was measured using a Spectramax i3x instrument (Molecular Devices, San Jose, CA, USA). The cell viability was calculated as follows: cell viability (%) = (OD (experiment) − OD (blank))/(OD (control) − OD (blank)) × 100%

Sprague-Dawley (SD) rats [4] = experiment: Death and signs of toxicity after intravenous injection in SD rats; type: in vivo, rat; settings: for death or signs of toxicity: injection, 'the same doses' (AVP: data not shown)
rat V1bR = test system: rat V1bR; set-up: method as in PMID 9264324; settings: ref [8]; cited from earlier work
rat V2R = test system: rat V2R; set-up: method as in PMID 9264324; settings: ref [8]; cited from earlier work
[5] = administered intravenously; no reference printed ('generally known'); cited from earlier work
[6] = treatment of nocturia, enuresis, and diabetes insipidus; ref [26]; cited from earlier work
Text: (§1) Currently, desmopressin is the antidiuretic drug of choice for the treatment of excessive and/or uncontrolled urination. […] Although desmopressin is generally considered safe and efficacious in the treatment o ...

V1aR [7] = settings: no reference given; cited from earlier work
Text: as §1

human OXTR [8] = target: T1, human OXTR (Homo sapiens, UniProt P30559); experiment: OXTR functional assay, agonist effect (intracellular Ca^2+ increase, fluorimetry, transfected ECV304 cells); type: cell-based; settings: up to 50 μM, RT, % of control response (1 µM OXT), triplicate
T1 construct: host or cells: ECV304
T1 sequence (P30559 1-389): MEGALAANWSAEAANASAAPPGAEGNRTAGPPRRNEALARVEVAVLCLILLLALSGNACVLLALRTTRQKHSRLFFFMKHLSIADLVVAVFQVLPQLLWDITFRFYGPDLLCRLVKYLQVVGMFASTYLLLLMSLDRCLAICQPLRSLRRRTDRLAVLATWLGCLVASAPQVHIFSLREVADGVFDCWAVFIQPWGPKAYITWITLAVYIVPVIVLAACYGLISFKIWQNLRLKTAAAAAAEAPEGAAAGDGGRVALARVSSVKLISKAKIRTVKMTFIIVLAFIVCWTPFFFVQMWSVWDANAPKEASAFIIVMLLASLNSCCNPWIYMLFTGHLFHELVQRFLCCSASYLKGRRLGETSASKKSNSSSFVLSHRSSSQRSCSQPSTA
Protocol: (§2) Detailed information about the cells tested and other experimental conditions are described in Table 2. Briefly, cells were transfected with a recombinant expression vector capable of expressing each type of human OXT/AVP receptor. To evaluate the agonist effects on OXTR, V1aR, and V1bR, the intracellular Ca^2+ increase after treatment with OTP or CPT was measured by fluorimetry. […] For V2R receptors, cells were treated with peptides with or without the stimulant for 30 min. After that, cyclic AMP (cAMP) concentrations were measured by homogeneous time-resolved fluorescence (HTRF). The results were represented as the percent submaximal response achieved by the stimulant. All experiments were performed in triplicate. Data are presented as the mean ± standard error of the mean. The 50% effective concentration (EC50) and 50% inhibitory concentration (IC50) values were determined using a 4-parameter logistic fitting of a dose–response curve using SigmaPlot 10.0 (Systat Software, Palo Alto, CA, USA).

human OXTR [9] = target: T1, human OXTR; experiment: OXTR functional assay, antagonist effect (30 nM OXT-induced intracellular Ca^2+, fluorimetry, ECV304 cells); type: cell-based
Protocol: as §2

human V1aR [10] = target: T2, human V1aR (Homo sapiens, UniProt P37288); experiment: V1aR functional assay, agonist effect (intracellular Ca^2+ increase, fluorimetry, CHO cells); type: cell-based; settings: up to 50 μM, RT, % of control response (1 µM AVP), triplicate
T2 construct: host or cells: CHO
Protocol: as §2

human V1aR [11] = target: T2, human V1aR; experiment: V1aR functional assay, antagonist effect (10 nM AVP-induced intracellular Ca^2+, fluorimetry, CHO cells); type: cell-based
Protocol: as §2

human V1bR = target: T3, human V1bR (Homo sapiens, UniProt P47901); experiment: V1bR functional assay, agonist effect (intracellular Ca^2+ increase, fluorimetry, RBL cells); type: cell-based
T3 construct: host or cells: RBL
T3 sequence (P47901 1-424): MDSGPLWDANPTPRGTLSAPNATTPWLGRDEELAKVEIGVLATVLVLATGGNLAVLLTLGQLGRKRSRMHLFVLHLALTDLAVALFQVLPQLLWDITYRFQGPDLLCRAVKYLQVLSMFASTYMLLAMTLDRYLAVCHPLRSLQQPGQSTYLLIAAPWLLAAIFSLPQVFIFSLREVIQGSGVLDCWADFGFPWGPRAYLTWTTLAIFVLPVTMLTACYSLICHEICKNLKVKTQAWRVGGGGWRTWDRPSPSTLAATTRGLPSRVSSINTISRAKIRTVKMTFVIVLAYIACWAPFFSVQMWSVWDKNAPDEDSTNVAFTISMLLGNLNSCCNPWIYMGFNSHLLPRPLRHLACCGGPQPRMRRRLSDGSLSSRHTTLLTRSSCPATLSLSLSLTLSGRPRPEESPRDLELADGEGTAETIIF
Protocol: as §2

human V2R = target: T4, human V2R (Homo sapiens, UniProt P30518); experiment: V2R functional assay, agonist effect (cAMP accumulation, HTRF, CHO cells); type: cell-based
T4 construct: host or cells: CHO
Protocol: as §2

[12] = target: T5, human AVP type 1b receptor (human) (UniProt P47901)
T5 sequence: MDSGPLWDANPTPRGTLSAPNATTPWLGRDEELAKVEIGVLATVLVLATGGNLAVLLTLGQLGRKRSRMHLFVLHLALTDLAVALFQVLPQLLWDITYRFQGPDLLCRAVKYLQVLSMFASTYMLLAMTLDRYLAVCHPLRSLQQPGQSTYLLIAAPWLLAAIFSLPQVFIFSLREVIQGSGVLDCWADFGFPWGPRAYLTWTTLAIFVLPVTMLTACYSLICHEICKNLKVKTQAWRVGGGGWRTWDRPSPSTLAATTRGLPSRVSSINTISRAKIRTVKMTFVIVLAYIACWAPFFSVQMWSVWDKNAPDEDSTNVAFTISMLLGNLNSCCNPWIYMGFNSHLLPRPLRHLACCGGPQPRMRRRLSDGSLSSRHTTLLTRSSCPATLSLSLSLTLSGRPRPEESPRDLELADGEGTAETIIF

[13] = target: human AVP type 2 receptor (human) (UniProt P30518)
[14] = target: human oxytocin receptor (human) (UniProt P30559)
[15] = target: human vasopressin receptor V1aR (human) (UniProt P37288)
[16] = target: human AVP type 2 receptor (human) (UniProt P30518); remark: listed apart in the source
[17] = target: human oxytocin receptor (human) (UniProt P30559); remark: listed apart in the source
[18] = 24 h after treatment, CCK-8, triplicate
[19] = 48 h after treatment, CCK-8, triplicate
[20] = nanomolar level of CPT (Figure 2E, 36.55 nM), calculated by curve-fitting

T2 sequence (P37288 whole entry): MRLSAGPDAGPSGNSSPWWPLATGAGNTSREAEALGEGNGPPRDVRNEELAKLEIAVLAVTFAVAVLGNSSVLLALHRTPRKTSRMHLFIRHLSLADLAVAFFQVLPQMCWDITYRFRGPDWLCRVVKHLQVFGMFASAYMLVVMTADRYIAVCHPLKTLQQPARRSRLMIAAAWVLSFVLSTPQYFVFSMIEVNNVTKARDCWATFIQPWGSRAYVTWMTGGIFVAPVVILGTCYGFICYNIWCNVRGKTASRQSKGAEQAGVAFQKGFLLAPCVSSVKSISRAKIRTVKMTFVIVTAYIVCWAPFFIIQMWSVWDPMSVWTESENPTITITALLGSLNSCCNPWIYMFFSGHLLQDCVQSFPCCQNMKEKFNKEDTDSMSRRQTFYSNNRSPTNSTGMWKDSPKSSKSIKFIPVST
Sequence of human vasopressin receptor V1aR (human) (P37288 whole entry): as above

inotocin
V1aR activity (in words) (V1aR [1]): selective antagonists of V1aR

NC(=O)CC[C@@H]1NC(=O)[C@H](Cc2ccccc2)NC(=O)[C@H](Cc2ccc(O)cc2)NC(=O)[C@@H](N)CSSC[C@@H](C(=O)N2CCC[C@H]2C(=O)N[C@@H](CCCN=C(N)N)C(=O)NCC(N)=O)NC(=O)[C@H](CC(N)=O)NC1=O [AVP, arginine vasopressin]
antidiuretic effect (in words) (Sprague-Dawley (SD) rats [2]; SD rats, 0.001 mg/mL/kg micro intravenous tail administration): shows an antidiuretic effect
viable HEK293T cells [3, 18]: Over 98%
viable HEK293T cells [3, 19]: Over 98%
viability compared to PBS control (in words) ([3]; 72 h, 0.1–10 μM, CCK-8, triplicate): slightly increase the viability
lethality (Sprague-Dawley (SD) rats [4]; 0.001 mg/mL/kg micro intravenous tail administration): occasionally lethal
death or signs of toxicity (Sprague-Dawley (SD) rats [4]): occasionally caused death
EC50 (rat V1bR): 1.31 nM
EC50 (rat V2R): 43.5 nM
half-life [5]: several minutes

Mpr-YFQNCP(D-Arg)G-NH2 (disulfide bond) (disulfide) [Desmopressin, 1-deamino-8-D-arginine vasopressin, positive control]
osmolarity (in words) (Sprague-Dawley (SD) rats [2]; male rats under 200 g, single microvenous injection, n=6 for each group): no change
death or signs of toxicity (Sprague-Dawley (SD) rats [4]): did not cause any death or signs of toxicity
half-life [5]: several hours
serious adverse effect [6]: hyponatremia
V1aR-mediated pressor activity (V1aR [7]): low

CC[C@H](C)[C@H](NC(=O)[C@@H]1CCCN1C(=O)[C@@H]1CSSC[C@H](N)C(=O)N[C@@H](Cc2ccc(O)cc2)C(=O)N[C@@H](Cc2ccccc2)C(=O)N[C@@H](CCCNC(=N)N)C(=O)N[C@@H](CC(N)=O)C(=O)N1)C(=O)NCC(N)=O [CPT, cephalotocin] (H-CYFRNCPIG-NH2; disulfide 1-6)
OXTR-mediated intracellular Ca^2+ increase (agonist effect) (human OXTR [8]): not activated
IC50 (human OXTR [9]; ECV304, stimulant 30 nM OXT, RT, fluorimetry, 4-parameter logistic fitting, triplicate): > 50000 nM
expected effect on OXTR, nanomolar level (human OXTR [9]; [20]): < 20%
V1aR-mediated intracellular Ca^2+ increase (agonist effect) (human V1aR [10]): not activated
IC50 (human V1aR [11]): 1230 nM
inhibition at 1.65 µM (human V1aR [11]; CHO, micromolar level (Figure 2F, 1.65 μM), calculated by curve-fitting, read-out: expected V1aR inhibition, micromolar level): ≥ 50%
expected effect on V1aR, nanomolar level (human V1aR [11]; [20]): < 20%
EC50 (human V1bR; RBL, intracellular Ca^2+, fluorimetry, RT, 4-parameter logistic fitting, triplicate): 10 nM
expected V1bR activation, nanomolar level (human V1bR; [20]): ~ 80%
EC50 (human V2R; CHO, cAMP, HTRF, 30 min RT, 4-parameter logistic fitting, triplicate): 12.1 nM
expected V2R activation, nanomolar level (human V2R; [20]): ~ 80%
cell morphology [3]: unchanged
viable HEK293T cells [3, 18]: Over 98%
viable HEK293T cells [3, 19]: Over 98%
death or signs of toxicity (Sprague-Dawley (SD) rats [4]): did not cause any death or signs of toxicity
lethality (Sprague-Dawley (SD) rats [4]; single intravenous injection (1 mg/mL/kg)): did not kill the experimental animals

B1: Cephalotocin (peptide)
peptide: CYFRNCPIG-NH2
modifications: disulfide 1-6; N-terminus assumed
SMILES: CC[C@H](C)[C@H](NC(=O)[C@@H]1CCCN1C(=O)[C@@H]1CSSC[C@H](N)C(=O)N[C@@H](Cc2ccc(O)cc2)C(=O)N[C@@H](Cc2ccccc2)C(=O)N[C@@H](CCCNC(=N)N)C(=O)N[C@@H](CC(N)=O)C(=O)N1)C(=O)NCC(N)=O
EC50 of V1bR-mediated intracellular Ca^2+ release (agonist effect) in RBL cells expressing human V1bR, fluorimetry [12]: 10 nM
EC50 of V2R-mediated cAMP accumulation (agonist effect) in CHO cells expressing human V2R, HTRF [13]: 12.1 nM
IC50 of the antagonist effect on intracellular Ca^2+ release induced by 30 nM OXT in ECV304 cells expressing human OXTR (pair blocked: OXT and OXTR) [14]: > 50000 nM
IC50 of the antagonist effect on intracellular Ca^2+ release induced by 10 nM AVP in CHO cells expressing human V1aR (pair blocked: AVP and V1aR) [15]: 1230 nM

B2: Octopressin (peptide)
peptide: CYWTSCPIG-NH2
modifications: disulfide 1-6; N-terminus assumed
SMILES: CC[C@H](C)[C@H](NC(=O)[C@@H]1CCCN1C(=O)[C@@H]1CSSC[C@H](N)C(=O)N[C@@H](Cc2ccc(O)cc2)C(=O)N[C@@H](Cc2c[nH]c3ccccc23)C(=O)N[C@@H]([C@@H](C)O)C(=O)N[C@@H](CO)C(=O)N1)C(=O)NCC(N)=O
V2R-mediated cAMP accumulation (agonist effect) in CHO cells expressing human V2R, percent of the control response at 50 μM OTP [16]: < 30%
antagonist effect on intracellular Ca^2+ release induced by 30 nM OXT in ECV304 cells expressing human OXTR (pair blocked: OXT and OXTR), inhibition rate at 50 μM OTP [17]: 30%
